# Columns and labels:
# PWR-1E cells [1] = assay: Antiproliferation assay, PWR-1E cells (Example 48); format: cell-based; conditions: read-out: IC50 PWR-1E cell
# Method: (§1) To determine the effect of lonidamine and analogs thereof on cell proliferation, the antiproliferative activity of these compounds was tested in a multi-well Alamar Blue based assay (at 2 h and 3 days). Cell growth in the presence and absence of the test compound (compounds 1-22) was compared, as measured by a fluorescence plate reader at excitation 550 nm and emission 590 nm (see Biosource International Inc., Tech Application Notes, Use of Alamar Blue in the measurement of Cell Viability and Toxicity, Determining IC50). H460 cells (ATCC HTB-177 ([…]), 4,000 cells/well/200 μl) and LNCap cells (ATCC CRL-1740, 6,000 cells/well/200 μl) were seeded in a 96 well plate in RPMI medium (Invitrogen Corporation, Carlsbad, Calif.). After 24 hours, these plates were divided into 3 groups—Control group, 2 h treatment group and 3 day treatment group. In the 2 h treatment group, after 2 h the cells were rinsed to remove the test compound and incubated for 3 days, followed by staining with AlamarBlue. The cells in the 3 day treatment group were incubated for 3 days, followed by staining with AlamarBlue. In the Control group, AlamarBlue was added to the plate at (i) day 0 and (ii) day 3 and measured to establish the control reading.
# The effect of lonidamine and analogs thereof on cell proliferation in PWR-1E cells (ATCC CRL-11611) was determined in an antiproliferative assay using PWR-1E cells (5000 cells/well) in Keratinocyte SFM medium (Gibco Products, Invitrogen Corporation, Carlsbad, Calif.) according to the procedure detailed in Example 47 above.
# testes = assay: 5 day systemic administration in male SH rats, testis; format: in vivo, rat; conditions: male SH rats, oral daily for 5 days at 50 mg/ml, day 6
# PWR-1E cells [2] = assay: Antiproliferation assay 3 days, PWR-1E cells (Example 49); format: cell-based; conditions: 3 day treatment; read-out: PWR1e cell line IC50
# Method: (§2) To determine the effect of lonidamine analogs thereof on cell proliferation, the antiproliferative activity of these compounds was tested in a multi-well Alamar Blue based assay (at 3 days). Cell growth in the presence and absence of the test compound was compared, as measured by a fluoresence plate reader at excitation 550 nm and emission 590 nm (see Biosource International Inc., Tech Application Notes, Use of Alamar Blue in the measurement of Cell Viability and Toxity, Determining IC50). The following cell lines were tested: PWR-1E cells ((ATCC CRL-11611), 3500 cells/well/200 μl in Keratinocyte SFM medium (Gibco Products, Invitrogen Corporation, Carlsbad, Calif.)); DU-145 cells ((ATCC HTB-81), 4000 cells/well/200 μl in MEM Eagles medium (ATCC, Manassas, Va.)); PC3 cells ((ATCC CRL-1435), 4000 cells/200 μl in Modified HAM's F12 medium (ATCC, Manassas, Va.)); PNt2 cells ((Sigma-Aldrich, 95012613-1 VL), 4000 cells/well/200 μl in RPMI medium (Gibco Products, Invitrogen Corporation, Carlsbad, Calif.), BPH-1 ((DSMZ ACC-143), 4000 cells/well/200 μl in RPMI medium (Gibco Products, Invitrogen Corporation, Carlsbad, Calif), and NCI-H460 cells ((ATCC HTB-177), 4000 cells/well/200 μl in RPMI medium (Gibco Products, Invitrogen Corporation, Carlsbad, Calif.)). The cells were seeded in a 96 well plate in a medium specified above. After 24 hours, these plates were divided into 2 groups—Control group and 3 day treatment group. A test compound was added to each plate in the treatment groups at concentrations of […] as tabulated in Table 1 (in 2 μl 1 of 100% DMSO, final DMSO concentration 1% in all wells). For NCI-H460 cells, test compounds were added to each plate in the treatment groups at concentrations of 600, 300, 100, 30, 10, 3, and 1 μM (in 2 μl of 100% DMSO, final DMSO concentration 1% in all wells). The cells in the 3 day treatment group were incubated for 3 days, followed by staining with AlamarBlue. In the Control group, AlamarBlue was added to the plate at (i) day 0 and (ii) day 3 and measured to establish the control reading. […] For the NCI-H460 cells, the capacity of the cells to proliferate was measured 5 hours after addition of AlamarBlue using the same fluorescence plate reader as stated above.
# SH rat prostate = assay: 5 day systemic administration in male SH rats, prostate; format: in vivo; conditions: male SH rats, oral daily for 5 days at 50 mg/ml, day 6
# Method: The effect of test compounds (lonidamine and lonidamine analogs) on the SH rat prostate was determined as follows. The test compound was orally administered daily for 5 days to male, SH rat, (n=6, 14 weeks old, Charles River Labs) at 50 mg/ml concentrations (as a 0.5% carboxymethylcellulose formulation). The control rats received an equal amount of the vehicle ([…]). Blood samples were collected 2 hours after administration on day 6, for pharmokinetic analysis of the compounds. On day 6 the rats were sacrificed and the entire prostate and the individual lobes (e.g., the ventral, dorso-lateral, and anterior lobes) were removed and weighed to measure absolute weights. Relative weights of prostate and individual lobes were calculated by dividing the absolute weight by the total body weight of the […]. Relative weights of the entire prostate, the dorsal prostate, and the ventral prostate were calculated by dividing the absolute weight by the total weight of the mouse. The histomorphology of the prostate was also analyzed and compared to that of the control or untreated prostate.
# LNCaP cells = assay: Antiproliferation assay (Alamar Blue), LNCaP cells; format: cell-based, human; conditions: 3 day treatment, read-out: GI50 LNCaP cell 3days
# Method: as §1
# PNt2 cells = assay: Antiproliferation assay 3 days, PNt2 cells; format: cell-based; conditions: 3 day treatment; read-out: PNT2c cell line IC50
# Method: as §2
smiles,measurement,setting,value
O=C(NO)c1nn(Cc2ccc(Cl)cc2Cl)c2ccccc12 [Compound 1],IC50,PWR-1E cells [1],4 µM
same,Testis shrinkage,testes,−2.5%
same,IC50,PWR-1E cells [2],5.3 µM
same,Prostate shrinkage,SH rat prostate,−4.8%
same,GI50,LNCaP cells,40 µM
same,IC50,PNt2 cells,17 µM

# Reference: patent publication US20070015771A1, “Lonidamine analogs” (Threshold pharmaceuticals, Inc., priority 2004, published 2007)
